Data on four compounds can be found in US4352819A (priority 1980, dated 1982).

Experiment [1] relates to calcium chloride-induced arrhythmias. As to the kind of experiment: Calcium chloride test (antiarrhythmic). In kind it is in vivo, rat. Particulars: for ED50: iv, read-out: ED50, Calcium chloride, rat. The text has this:
(§1) These compounds were first selected owing to their activity in different experimental arrhythmia models which are used as screening techniques. So the chloroform, aconitine and calcium chloride tests have been used for testing the compounds of the invention as described by J. W. Lawson, J.Pharmacol.exp.Ther. 160, 22-81 (1968) "Antiarrhythmic activity of some isoquinoline derivatives determined by a rapid screening procedure in the mouse".
Cardiac arrhythmia frequently occurs when the levels of serum ions are abnormal, particularly when the calcium level is four times higher than the normal concentration. This is the reason why intravenous administraction of high doses of calcium chloride can elicit the development of dysrhythmias in animals.
In the anaesthetized rat the rapid intravenous injection of calcium chloride causes lethal ventricular fibrillation or ventricular extrasystoles. The evaluation of the activity of the test compound aministered prior to the calcium chloride injection is based on the onset of arrhythmia (M. R. Malinow et al., Arch.int. Pharmacodyn. 102, 55-64 (1955), "The pharmacology of experimental ventricular arrhythmias in the rat I. Antihistamic drugs") or return to sinus rhythm after occasional trouble of rhythm (M. Fekete et al., Med. Exp. 10, 93-102 (1964), "On the antiarrhythmic effect of some thymoleptics: amitriptyline, imipramine, trimepropimine and desmethylimipramine").

For experiment [2], the system named is ventricular fibrillation induced by chloroform. In words: Chloroform test (antiarrhythmic). In kind it is in vivo. To be noted: iv, read-out: ED50, Chloroform, mouse (dose which protects 50% of the mice against ventricular fibrillation induced by chloroform). As for the experimental part: Five minutes after i.v. injection of the compound under study the mice are placed into a 300 ml beaker containing cotton wool soaked with 20 ml of chloroform. The animals are watched carefully and taken out of the beaker as soon as the second respiratory arrest occured. The heart is then quickly exposed to visual inspection of ventricular rhythm (see Lawson, Loc.cit.).

For experiment [3], the system named is aconitine-induced arrhythmias. In words: Aconitine test (antiarrhythmic). In kind it is in vivo, rat. To be noted: for ED50: Rattus norvegicus, read-out: ED50, Aconitine, rat.
Text: as §1
It seems that investigators favour the rat so as to study the protective effect of a compound on arrhythmia induced by aconitine (see: J. L. Junien et al., Arzneim.Forsch. 24, 1743-1747 (1974); L. Szekeres et al., Experimental cardiac arrhythmias and antiarrhythmic drugs, Publishing House of the Hungarian Academy of Sciences (Akademia Kiado), Budapest (1971); M. R. Malinow et al., Arch.int.Pharmacodyn. 102, 55-64 (1955); C. Bianchi et al., Arzneim. Forsch. 18, 845-850 (1968); B. B. Vargaftig et al., J. Pharm. Pharmacol. 27, 697-699 (1975); and M. Fekete et al., Med Exp. 10, 93-102 (1964)).
Test compounds are administered to the urethane-anaesthetized rat prior to the injection of aconitine. Various antiarrhythmic drugs are capable of delaying the onset of aconitine-induced arrhythmias and this model of arrhythmia seems to be suitable for assaying the antiarrhythmic acitivity.

SMILES strings stand for the structures. Like-named read-outs stand apart in the source and are kept apart here.

Consider `CCCNCC(O)COc1c(C)csc1C(=O)CCc1ccccc1.OCl` (centres unmarked) [LG 80-6-01, 1-[4-methyl-3-(2-hydroxy-3-n-propylaminopropoxy)-2-thienyl]-3-phenyl-1-propanone-chlorohydrate], for which the values for the median effective dose (ED50) in experiment [1] (Rattus norvegicus), in experiment [2] (Mus musculus) and in experiment [3] were 2.59 mg/kg, 3.57 mg/kg and 1.49 mg/kg, respectively. Besides, the “protection against arrhythmias induced by calcium chloride” value in experiment [1] (rat) is recorded as “best protection against arrhythmias induced by calcium chloride”. In addition, the “ranking in the aconitine test” value in experiment [3] (rat, compared by ED50) is given as “best compound in this method”.
As to `CCCCNCC(O)COc1ccsc1C(=O)CCc1ccccc1.OCl` (centres unmarked) [LG 80-6-00, 1-[3-(2-hydroxy-3-n-butylaminopropoxy)-2-thienyl]-3-phenyl-1-propanone-chlorohydrate], the ED50 in experiment [1] (Rattus norvegicus) was found to be 5.04 mg/kg; in experiment [2] (Mus musculus) it was 4.16 mg/kg; in experiment [3], 4.23 mg/kg.
Turning to `CCCNCC(O)COc1cc(C)sc1C(=O)CCc1ccccc1.OCl` (centres unmarked) [LG 80-6-02, 1-[5-methyl-3-(2-hydroxy-3-n-propylaminopropoxy)-2-thienyl]-3-phenyl-1-propanone-chlorohydrate], the ED50 in experiment [1] (Rattus norvegicus) stood at 2.87 mg/kg; in experiment [2] (Mus musculus), 17.6 mg/kg; in experiment [3] it was 22.8 mg/kg.
As for `CCCNCC(O)COc1ccccc1C(=O)CCc1ccccc1` (centres unmarked) [Propafenon, Propafenone, reference compound], the ED50 in experiment [1] (anaesthetized rat, compound given prior to i.v. calcium chloride) came out at 4.49 mg/kg; in experiment [2] (mouse, i.v., 5 minutes before chloroform), 3.45 mg/kg; in experiment [3], 2.1 mg/kg.
